Measured values as given in US8859464B2, “Nitrogen containing isethionic acid salts in field ready spray and tank mixes” (Huntsman Petrochemical L LC, priority 2009, dated 2014).

System: target weed species
Assay: Water conditioning efficacy in greenhouse evaluation of isopropylamine glyphosate spray tank solutions in hard water
Type: in vivo
Details: aqueous spray tank solutions of isopropylamine glyphosate, standard hard water, absence of any surfactant, compared with ammonium sulfate
Method: Isethionic acid (Example 1) and ten neutralization products of isethionic acid (Examples 2-11) were used to treat aqueous spray tank solutions of isopropylamine glyphosate in order to measure the water conditioning efficacy of isethionic acid and the other isethionates. Isethionic acid was neutralized with sodium (Examples 2, 6, and 7), ammonia (Examples 3-5) and tallow amine ethoxylates (Examples 8-11—SURFONIC® T-5 surfactant). These candidates were evaluated against the standard agricultural water conditioner, ammonium sulfate in an aqueous tank mix of isopropylamine glyphosate (Control Example). Specifically, the candidates were tested for their ability to condition water as a function of the suppression of water hardness inhibition of pesticides, such as glyphosate. All evaluations were run in the absence of any surfactant in standard hard water as defined by the World Health Organization standard hard waters. The evaluations were run in greenhouse conditions over a variety of plant species, including determining injury to crop species. The reported data was percent control of target weed species and percent injury to crop species. All evaluations (except for one industry standard) were conducted in the absence of any surfactant.

SMILES: O=S(=O)(O)CCO [isethionic acid, Isethionic Acid]
- water conditioning efficacy (suppression of water hardness inhibition of glyphosate): functioned at a level comparable to that of the agricultural industry standard ammonium sulfate
